Experimental findings from patent US10406146B2, “Heterocyclic compound” (TAKEDA PHARMACEUTICAL COMPANY LIMITED, priority 2015, dated 2019) are described below.

Common to all, as to format: biochemical
The target of one experiment is T1, HDAC1 enzyme (Homo sapiens, UniProt Q13547).
T1 construct: transducing full length HDAC1 and HDAC6 genes into Sf-9 insect cells; GST; purchased SignalChem; host or cells: Sf-9 insect cells
In words: HDAC1 enzyme inhibitory assay (HDAC-Glo I/II Assay kit). The following applies: wells without enzyme = 100% inhibition; for inhibition at 1 µM: read-out: HDAC1 inhibitory rate (%) (1 μM). Put shortly:
(§1)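 Luminescent HDAC-Glo I/II read-out was taken 20 min after adding substrate-developer, at room temperature. Before this, compound and enzyme were held together for 60 min in 24 mM Tris-HCl pH 7.5 with 0.6 mM glutathione and 0.01% Tween-20. The enzyme was full-length HDAC1 or HDAC6 from Sf-9 cells, GST-purified. Wells without enzyme defined 100% inhibition.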

The target of the next experiment is T2, HDAC9 enzyme (Homo sapiens, UniProt Q9UKV0).
T2 construct: transducing full length HDAC9 gene into Sf-9 insect cells; made in house; host or cells: Sf-9 insect cells
T2 sequence (Q9UKV0 whole entry, species assumed): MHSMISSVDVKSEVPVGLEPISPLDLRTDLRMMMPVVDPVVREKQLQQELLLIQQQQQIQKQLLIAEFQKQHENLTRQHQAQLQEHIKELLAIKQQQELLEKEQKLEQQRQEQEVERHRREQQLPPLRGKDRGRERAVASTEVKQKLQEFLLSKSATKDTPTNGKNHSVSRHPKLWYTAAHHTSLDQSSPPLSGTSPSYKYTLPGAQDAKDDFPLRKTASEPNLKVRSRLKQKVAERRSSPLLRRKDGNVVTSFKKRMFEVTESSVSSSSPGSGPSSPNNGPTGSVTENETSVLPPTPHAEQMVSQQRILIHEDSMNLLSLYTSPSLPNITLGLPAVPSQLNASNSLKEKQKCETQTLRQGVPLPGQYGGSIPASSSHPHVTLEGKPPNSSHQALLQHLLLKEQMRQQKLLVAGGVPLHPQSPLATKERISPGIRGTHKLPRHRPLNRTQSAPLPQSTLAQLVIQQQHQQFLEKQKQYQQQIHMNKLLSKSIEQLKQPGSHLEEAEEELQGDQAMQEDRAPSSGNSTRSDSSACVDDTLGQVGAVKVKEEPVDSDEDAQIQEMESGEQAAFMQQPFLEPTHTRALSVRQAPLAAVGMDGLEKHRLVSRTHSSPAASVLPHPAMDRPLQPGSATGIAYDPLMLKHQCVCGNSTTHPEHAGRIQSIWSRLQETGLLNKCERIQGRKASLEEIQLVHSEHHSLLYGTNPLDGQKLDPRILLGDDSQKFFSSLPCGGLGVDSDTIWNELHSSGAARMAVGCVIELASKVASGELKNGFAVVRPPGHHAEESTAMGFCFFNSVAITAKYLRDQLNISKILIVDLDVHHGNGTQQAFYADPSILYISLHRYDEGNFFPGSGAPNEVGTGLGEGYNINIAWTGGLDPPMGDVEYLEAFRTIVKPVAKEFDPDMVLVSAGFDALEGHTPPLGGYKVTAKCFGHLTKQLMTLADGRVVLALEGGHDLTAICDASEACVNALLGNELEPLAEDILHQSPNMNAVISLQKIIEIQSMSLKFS
Briefly: HDAC9 enzyme inhibitory assay (HDAC-Glo class IIa). As to conditions: wells without enzyme = 100% inhibition; for inhibition at 1 µM: read-out: HDAC9 inhibitory rate (%) (1 μM). Put shortly:
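Full-length human HDAC9 from Sf-9 cells, Ni-NTA purified, preincubated with compound for 60 min at room temperature in Tris-HCl pH 7.5 buffer (MgCl2, KCl, NaCl, glutathione, Tween-20). HDAC-Glo class IIa substrate-developer added; luminescence read after 20 min, with no-enzyme wells defining 100% inhibition.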

The target of another experiment is T3, HDAC6 enzyme (Homo sapiens, UniProt Q9UBN7).
T3 construct: transducing full length HDAC1 and HDAC6 genes into Sf-9 insect cells; GST; purchased SignalChem; host or cells: Sf-9 insect cells
T3 sequence (Q9UBN7 1-1215): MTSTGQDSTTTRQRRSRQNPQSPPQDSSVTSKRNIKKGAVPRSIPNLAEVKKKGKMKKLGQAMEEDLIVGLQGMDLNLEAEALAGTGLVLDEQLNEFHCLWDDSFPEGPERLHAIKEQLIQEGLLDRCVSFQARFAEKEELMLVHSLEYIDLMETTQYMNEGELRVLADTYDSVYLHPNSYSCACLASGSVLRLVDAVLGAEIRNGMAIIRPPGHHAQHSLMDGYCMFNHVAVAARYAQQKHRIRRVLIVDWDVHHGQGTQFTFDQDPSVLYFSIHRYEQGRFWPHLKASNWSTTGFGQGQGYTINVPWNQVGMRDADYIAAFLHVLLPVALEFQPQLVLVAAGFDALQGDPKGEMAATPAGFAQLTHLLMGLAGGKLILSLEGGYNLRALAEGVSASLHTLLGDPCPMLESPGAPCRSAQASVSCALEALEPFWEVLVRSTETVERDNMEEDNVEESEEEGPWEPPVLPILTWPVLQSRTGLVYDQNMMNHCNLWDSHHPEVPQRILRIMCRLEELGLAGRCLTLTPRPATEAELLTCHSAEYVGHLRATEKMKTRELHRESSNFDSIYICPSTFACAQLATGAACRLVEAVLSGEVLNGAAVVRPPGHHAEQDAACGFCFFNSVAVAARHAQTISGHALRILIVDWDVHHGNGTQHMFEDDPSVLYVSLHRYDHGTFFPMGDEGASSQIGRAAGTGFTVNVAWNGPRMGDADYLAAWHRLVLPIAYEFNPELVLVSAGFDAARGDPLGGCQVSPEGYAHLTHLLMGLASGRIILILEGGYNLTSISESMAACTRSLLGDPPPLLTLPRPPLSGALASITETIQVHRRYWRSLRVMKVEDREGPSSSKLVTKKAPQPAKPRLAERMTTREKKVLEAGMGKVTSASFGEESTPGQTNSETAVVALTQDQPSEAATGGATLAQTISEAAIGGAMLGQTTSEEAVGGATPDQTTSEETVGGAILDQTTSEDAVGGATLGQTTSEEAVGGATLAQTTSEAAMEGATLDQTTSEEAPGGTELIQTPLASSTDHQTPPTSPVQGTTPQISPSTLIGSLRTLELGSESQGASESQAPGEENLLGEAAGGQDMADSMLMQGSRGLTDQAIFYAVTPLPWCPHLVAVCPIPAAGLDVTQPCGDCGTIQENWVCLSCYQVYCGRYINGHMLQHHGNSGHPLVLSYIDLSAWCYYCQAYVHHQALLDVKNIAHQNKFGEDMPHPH
In words: HDAC6 enzyme inhibitory assay (HDAC-Glo I/II Assay kit). The following applies: wells without enzyme = 100% inhibition; for inhibition at 1 µM: read-out: HDAC6 inhibitory rate (%) (1 μM). A digest of the protocol: as §1

T1 sequence (Q13547 whole entry): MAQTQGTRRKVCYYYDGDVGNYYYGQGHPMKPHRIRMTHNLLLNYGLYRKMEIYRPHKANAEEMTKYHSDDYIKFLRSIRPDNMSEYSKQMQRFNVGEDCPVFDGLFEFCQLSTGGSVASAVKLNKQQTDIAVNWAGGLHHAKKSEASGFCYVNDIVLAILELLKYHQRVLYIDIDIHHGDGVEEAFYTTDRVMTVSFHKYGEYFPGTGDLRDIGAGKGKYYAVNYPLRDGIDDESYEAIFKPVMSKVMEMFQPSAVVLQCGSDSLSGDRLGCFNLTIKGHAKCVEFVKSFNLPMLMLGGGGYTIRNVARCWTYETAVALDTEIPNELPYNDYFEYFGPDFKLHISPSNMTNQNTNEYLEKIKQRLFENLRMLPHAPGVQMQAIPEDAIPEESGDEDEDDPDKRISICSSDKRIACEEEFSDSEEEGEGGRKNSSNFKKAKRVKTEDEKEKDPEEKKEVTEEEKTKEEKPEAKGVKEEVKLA

As for `O=C(Cc1cccs1)NCC1CCCCN1C(=O)Nc1ccc(-c2noc(C(F)(F)F)n2)cc1` (stereo not drawn) [Example 46, 2-(((2-thienylacetyl)amino)methyl)-N-(4-(5-(trifluoromethyl)-1,2,4-oxadiazol-3-yl)phenyl)piperidine-1-carboxamide], the inhibition at 1 µM at HDAC1 enzyme was 93%; at HDAC9 enzyme, 94%; on HDAC6 enzyme, 11%.

In the case of `O=C(CCc1ccccc1)NCC1CCCCN1C(=O)Nc1ccc(-c2noc(C(F)(F)F)n2)cc1` (stereo not drawn) [Example 47, 2-(((3-phenylpropanoyl)amino)methyl)-N-(4-(5-(trifluoromethyl)-1,2,4-oxadiazol-3-yl)phenyl)piperidine-1-carboxamide], the inhibition at 1 µM on HDAC1 enzyme is 68%; on HDAC9 enzyme it was 89%; on HDAC6 enzyme, 7%.

For `O=C(NCC1CCCCN1C(=O)Nc1ccc(-c2noc(C(F)(F)F)n2)cc1)c1csc(C(F)(F)F)n1` (stereo not drawn) [Example 60, N-(4-(5-(trifluoromethyl)-1,2,4-oxadiazol-3-yl)phenyl)-2-((((2-(trifluoromethyl)-1,3-thiazol-4-yl)carbonyl)amino)methyl)piperidine-1-carboxamide], the inhibition at 1 µM turned out to be 20% on HDAC1 enzyme, 72% on HDAC9 enzyme and 1% at HDAC6 enzyme.

As to `O=C(NCC1CCCCN1C(=O)Nc1ccc(-c2noc(C(F)(F)F)n2)cc1)c1ccc(Cl)c(Cl)c1` (stereo not drawn) [Example 32, 2-(((3,4-dichlorobenzoyl)amino)methyl)-N-(4-(5-(trifluoromethyl)-1,2,4-oxadiazol-3-yl)phenyl)piperidine-1-carboxamide], the inhibition at 1 µM is -10% at HDAC1 enzyme, 62% at HDAC9 enzyme and 0% on HDAC6 enzyme.

As for `O=C(NCC1CCCCN1C(=O)Nc1ccc(-c2noc(C(F)(F)F)n2)cc1)C1CC1` (stereo not drawn) [Example 49, 2-(((cyclopropylcarbonyl)amino)methyl)-N-(4-(5-(trifluoromethyl)-1,2,4-oxadiazol-3-yl)phenyl)piperidine-1-carboxamide], the inhibition at 1 µM at HDAC1 enzyme was found to be 75%; at HDAC9 enzyme, 92%; at HDAC6 enzyme, 7%.

Turning to `Cc1cc(C(=O)NCC2CCCCN2C(=O)Nc2ccc(-c3noc(C(F)(F)F)n3)cc2)ccn1` (stereo not drawn) [Example 57, 2-methyl-N-((1-((4-(5-(trifluoromethyl)-1,2,4-oxadiazol-3-yl)phenyl)carbamoyl)piperidin-2-yl)methyl)isonicotinamide], the inhibition at 1 µM came out at 38% on HDAC1 enzyme, 94% at HDAC9 enzyme and 6% at HDAC6 enzyme.

For `Cn1nccc1C(=O)NC[C@@H]1COCCN1C(=O)Nc1ccc(-c2noc(C(F)(F)F)n2)cc1` [Example 63, (3R)-3-((((1-methyl-1H-pyrazol-5-yl)carbonyl)amino)methyl)-N-(4-(5-(trifluoromethyl)-1,2,4-oxadiazol-3-yl)phenyl)morpholine-4-carboxamide], the inhibition at 1 µM was found to be 70% at HDAC1 enzyme, 99% at HDAC9 enzyme and 11% on HDAC6 enzyme.

On to `O=C(NCC1CCCCN1C(=O)Nc1ccc(-c2noc(C(F)(F)F)n2)cc1)c1ccc(-c2ccccc2)cc1` (stereo not drawn) [Example 15, 2-(((biphenyl-4-ylcarbonyl)amino)methyl)-N-(4-(5-(trifluoromethyl)-1,2,4-oxadiazol-3-yl)phenyl)piperidine-1-carboxamide], for which the inhibition at 1 µM was -12% on HDAC1 enzyme, 40% at HDAC9 enzyme and -1% on HDAC6 enzyme.

As to `O=C(NCC1CCCCN1C(=O)Nc1ccc(-c2noc(C(F)(F)F)n2)cc1)c1cccc(Cl)c1` (stereo not drawn) [Example 8, 2-(((3-chlorobenzoyl)amino)methyl)-N-(4-(5-(trifluoromethyl)-1,2,4-oxadiazol-3-yl)phenyl)piperidine-1-carboxamide], the figures for the inhibition at 1 µM on HDAC1 enzyme, on HDAC9 enzyme and at HDAC6 enzyme were -7%, 68% and 2%, respectively.

As to `CN1CCC(C(=O)NCC2CCCCN2C(=O)Nc2ccc(-c3noc(C(F)(F)F)n3)cc2)CC1` (stereo not drawn) [Example 52, 2-((((1-methylpiperidin-4-yl)carbonyl)amino)methyl)-N-(4-(5-(trifluoromethyl)-1,2,4-oxadiazol-3-yl)phenyl)piperidine-1-carboxamide], the inhibition at 1 µM on HDAC1 enzyme was 27%; at HDAC9 enzyme it was 80%; at HDAC6 enzyme it was 6%.

Regarding `O=C(NCC1CCCCN1C(=O)Nc1ccc(-c2noc(C(F)(F)F)n2)cc1)c1cccc(Cl)c1Cl` (stereo not drawn) [Example 30, 2-(((2,3-dichlorobenzoyl)amino)methyl)-N-(4-(5-(trifluoromethyl)-1,2,4-oxadiazol-3-yl)phenyl)piperidine-1-carboxamide], the inhibition at 1 µM at HDAC1 enzyme came to 4%; on HDAC9 enzyme, 70%; at HDAC6 enzyme, 1%.

In the case of `O=C(NCC1CCCCN1C(=O)Nc1ccc(-c2noc(C(F)(F)F)n2)cc1)c1ccnc(O)c1` (stereo not drawn) [Example 58], the “HDAC1 inhibitory rate (%) (1 μM)” value on HDAC1 enzyme came to 25%. Moreover, the “HDAC9 inhibitory rate (%) (1 μM)” value on HDAC9 enzyme is 87%. Besides, the “HDAC6 inhibitory rate (%) (1 μM)” value at HDAC6 enzyme is given as 3%.

Consider `CC(=O)NCC1CCCCN1C(=O)Nc1ccc(-c2noc(C(F)(F)F)n2)cc1` (stereo not drawn) [Example 48, 2-(acetamidomethyl)-N-(4-(5-(trifluoromethyl)-1,2,4-oxadiazol-3-yl)phenyl)piperidine-1-carboxamide], for which the inhibition at 1 µM is 41% on HDAC1 enzyme, 88% at HDAC9 enzyme and 5% at HDAC6 enzyme.

Turning to `CC(C)(C)OC(=O)NCC1CCCCN1C(=O)Nc1ccc(-c2noc(C(F)(F)F)n2)cc1` (stereo not drawn) [Example 3, tert-butyl ((1-((4-(5-(trifluoromethyl)-1,2,4-oxadiazol-3-yl)phenyl)carbamoyl)piperidin-2-yl)methyl) carbamate], on HDAC1 enzyme, the “HDAC1 inhibitory rate (%) (1 μM)” value came out at 51%. Moreover, at HDAC9 enzyme, the “HDAC9 inhibitory rate (%) (1 μM)” value was determined as 87%. Also, the “HDAC6 inhibitory rate (%) (1 μM)” value at HDAC6 enzyme is 5%.

Regarding `O=C(NCC1CCCCN1C(=O)Nc1ccc(-c2noc(C(F)(F)F)n2)cc1)c1cccs1` (stereo not drawn) [Example 38, 2-(((2-thienylcarbonyl)amino)methyl)-N-(4-(5-(trifluoromethyl)-1,2,4-oxadiazol-3-yl)phenyl)piperidine-1-carboxamide], the results for the inhibition at 1 µM at HDAC1 enzyme, at HDAC9 enzyme and on HDAC6 enzyme were 37%, 95% and 7%, respectively.

In the case of `Cn1nccc1C(=O)NCC1CCCCN1C(=O)Nc1ccc(-c2noc(C(F)(F)F)n2)cc1` (stereo not drawn) [Example 41, 2-((((1-methyl-1H-pyrazol-5-yl)carbonyl)amino)methyl)-N-(4-(5-(trifluoromethyl)-1,2,4-oxadiazol-3-yl)phenyl)piperidine-1-carboxamide], the inhibition at 1 µM was 59% on HDAC1 enzyme, 98% at HDAC9 enzyme and 7% at HDAC6 enzyme.

Take `O=C(NCC1CCCCN1C(=O)Nc1ccc(-c2noc(C(F)(F)F)n2)cc1)c1ccc(Cl)cc1Cl` (stereo not drawn) [Example 31]: the “HDAC1 inhibitory rate (%) (1 μM)” value at HDAC1 enzyme is on record as −12%. Moreover, the “HDAC9 inhibitory rate (%) (1 μM)” value on HDAC9 enzyme stood at 38%. At HDAC6 enzyme, the “HDAC6 inhibitory rate (%) (1 μM)” value is −1%.

Consider `O=C(NCC1CCCCN1C(=O)Nc1ccc(-c2noc(C(F)(F)F)n2)cc1)c1cccc(O)c1` (stereo not drawn) [Example 26, 2-(((3-hydroxybenzoyl)amino)methyl)-N-(4-(5-(trifluoromethyl)-1,2,4-oxadiazol-3-yl)phenyl)piperidine-1-carboxamide], for which the inhibition at 1 µM at HDAC1 enzyme turned out to be 42%; at HDAC9 enzyme, 94%; at HDAC6 enzyme, 2%.
